Patent EP1077967B1, “BIPHENYL OXO-ACETIC ACIDS USEFUL IN THE TREATMENT OF INSULIN RESISTANCE AND HYPERGLYCEMIA” (Wyeth, priority 1998, dated 1999)
Where a name gives a salt, the structure may show the parent alone. Read-outs that look alike come from different tables or passages of the source.

Assays:
[1] = tested on: rat hepatic microsomal PTPases; experiment: Inhibition of tri-phosphorylated insulin receptor dodecaphosphopeptide dephosphorylation by rat hepatic PTPases (malachite green); assay type: biochemical; details: rat liver microsomal fraction; for % Change from Control: PTPase activity, compound at 50 µM; for IC50: % Change from Control
Human recombinant PTP1B = biological target: T1, Human recombinant PTP1B (Homo sapiens, UniProt P18031); experiment: Inhibition of tri-phosphorylated insulin receptor dodecaphosphopeptide dephosphorylation by hPTP1B (malachite green); assay type: biochemical; details: for inhibition at 2.5 µM: read-out: change of PTP1B activity (percent of phosphatase control)
T1 construct: made in house
T1 sequence (P18031 1-435): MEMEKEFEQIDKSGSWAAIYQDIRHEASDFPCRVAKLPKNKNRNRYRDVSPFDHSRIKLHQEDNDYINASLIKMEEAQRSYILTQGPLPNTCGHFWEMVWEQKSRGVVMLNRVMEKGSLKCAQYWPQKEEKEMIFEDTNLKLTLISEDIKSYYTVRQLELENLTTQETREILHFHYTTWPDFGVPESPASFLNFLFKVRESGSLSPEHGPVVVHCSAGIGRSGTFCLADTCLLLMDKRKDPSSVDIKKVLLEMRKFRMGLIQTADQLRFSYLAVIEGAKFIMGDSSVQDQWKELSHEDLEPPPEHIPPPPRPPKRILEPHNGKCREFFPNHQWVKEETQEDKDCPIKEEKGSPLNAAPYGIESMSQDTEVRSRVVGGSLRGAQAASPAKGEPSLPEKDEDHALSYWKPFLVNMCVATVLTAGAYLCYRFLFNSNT

[2] = recombinant PTP1B, dodecaphosphopeptide substrate

Molecule	IC50 (Human recombinant PTP1B; [2]) [µM]	further results
O=C(O)COc1ccc(-c2ccc(-c3coc4ccccc34)cc2)cc1 [Example 4, (4'-Benzofuran-3-yl-biphenyl-4-yloxy)-acetic acid]	–	% Change from Control [1]: -11%; change of PTP1B activity (percent of phosphatase control) (Human recombinant PTP1B; compound at 2.5 uM): -51 (2.5 uM)
O=C(O)C(Cc1ccccc1)Oc1ccc(-c2ccc(-c3coc4ccccc34)cc2)cc1 (centres unmarked) [Example 5, 2-(4'-Benzofuran-3-yl-biphenyl-4-yloxy)-3-phenyl-propionic acid]	–	% Change from Control [1]: -70%; change of PTP1B activity (percent of phosphatase control) (Human recombinant PTP1B; compound at 2.5 uM): -47 (2.5 uM)
O=C(O)COc1ccc(-c2ccc(-c3c(Br)oc4ccccc34)cc2)cc1 [Example 6, [4'-(2-Bromo-benzofuran-3-yl)-biphenyl-4-yloxy]-acetic acid]	–	% Change from Control [1]: -71%; inhibition at 2.5 µM (Human recombinant PTP1B; compound at 2.5 uM): 15%
O=C(O)C(Cc1ccccc1)Oc1ccc(-c2ccc(-c3c(Br)oc4ccccc34)cc2)cc1 (centres unmarked) [Example 7, 2-[4'-(2-Bromo-benzofuran-3-yl)-biphenyl-4-yloxy]-3-phenyl-propionic acid]	–	% Change from Control [1]: -73%; inhibition at 2.5 µM (Human recombinant PTP1B; compound at 2.5 uM): 58%
CCCCc1oc2ccccc2c1-c1ccc(-c2ccc(O)cc2)cc1 [Example 8, 4'-(2-Butyl-benzofuran-3-yl)-biphenyl-4-ol]	0.74	% Change from Control [1]: -28%
CCCCc1oc2ccccc2c1-c1ccc(-c2ccc(OCC(=O)O)cc2)cc1 [Example 9, [4'-(2-Butyl-benzofuran-3-yl)-biphenyl-4-yloxy]-acetic acid]	2.19	% Change from Control [1]: -75%
O=C(O)[C@H](Cc1ccccc1)Oc1ccc(-c2ccc(-c3c(Cc4ccccc4)oc4ccccc34)cc2)cc1 [Example 16, (2S)-2-[4'-(2-Benzyl-benzofuran-3-yl)-biphenyl-4-yloxy]-3-phenyl-propionic acid tromethamine salt]	0.397	% Change from Control [1]: -53%
O=C(O)[C@H](Oc1ccc(-c2ccc(-c3c(Cc4ccccc4)oc4ccccc34)cc2)cc1)c1ccccc1 [Example 18, (2R)-2-[4'-(2-Benzyl-benzofuran-3-yl)-biphenyl-4-yloxy]-phenyl-acetic acid]	0.401	IC50 [1]: 24.2 µM
COc1ccc(Cc2sc3ccccc3c2-c2ccc(-c3ccc(O[C@H](Cc4ccccc4)C(=O)O)cc3)cc2)cc1 [Example 20]	–	IC50 [1]: 41.6 µM
CCCCc1sc2ccccc2c1-c1ccc(-c2ccc(OC(C(=O)O)c3ccccc3)cc2)cc1 (centres unmarked) [Example 21, [4'-(2-Butyl-benzo[b]thiophene-3-yl)-biphenyl-4-yloxy]-phenyl-acetic acid]	0.118	IC50 [1]: 35.5 µM
O=C(O)[C@@H](Cc1ccccc1)Oc1ccc(-c2ccc(-c3c(C(O)c4ccccc4)oc4ccccc34)cc2)cc1 (stereo partly drawn) [Example 22, (2R)-2-{4'-[2-(Hydroxy-phenyl-methyl)-benzofuran-3-yl)-biphenyl-4-yloxy]-3-phenyl-propionic acid]	0.118	% Change from Control [1]: -55%
COc1ccc(Cc2sc3ccccc3c2-c2ccc(-c3ccc(O[C@H](Cc4ccccc4)C(=O)O)cc3)cc2)cc1OC [Example 25, (2R)-2-{4'-[2-(3,4-Dimethoxy-benzyl)-benzo[b]thiophen-3-yl]-biphenyl-4-yloxy}-3-phenyl-propionic acid]	0.213	IC50 [1]: 17.9 µM
O=C(O)[C@H](CCc1ccccc1)Oc1ccc(-c2ccc(-c3c(Cc4ccccc4)oc4ccccc34)cc2)cc1 [Example 47, (2S)-2-[4'-(2-benzyl-benzofuran-3-yl)-biphenyl-4-yloxy]-4-phenyl-butyric acid]	0.225	–
CC[C@H](Oc1c(Br)cc(-c2ccc(-c3c(Cc4ccccc4)oc4ccccc34)cc2)cc1Br)C(=O)O [Example 53, (2S)-2-[4'-(2-benzyl-benzofuran-3-yl)-3,5-dibromo-biphenyl-4-yloxy]-butyric acid]	0.133	–
O=C(O)COc1ccc(-c2ccc(-c3c(Cc4ccccc4)sc4ccccc34)cc2)cc1-c1ccccc1 [Example 62]	0.105	–
O=C(O)c1ccc(COc2ccc(-c3ccc(-c4c(Cc5ccccc5)oc5ccccc45)cc3)cc2)cc1 [Example 63, 4-[4'-(2-benzyl-benzofuran-3-yl)-biphenyl-4-yloxymethyl]-benzoic acid]	0.369	–
Cc1sc(Cc2ccccc2)c(-c2ccc(-c3ccc(O[C@H](Cc4ccccc4)C(=O)O)cc3)cc2)c1C [Example 64, (2R)-2-[4'-(2-Benzyl-4,5-dimethyl-thiophen-3-yl)-biphenyl-4-yloxy]-3-phenyl-propionic acid]	0.512	–
O=C(c1ccccc1)c1oc2ccccc2c1-c1ccc(-c2ccc(O[C@H](Cc3ccccc3)C(=O)O)c([N+](=O)[O-])c2)cc1 [Example 66, (2R)-2-[4'-(2-Benzoyl-benzofuarn-3-yl)-3-nitro-biphenyl-4-yloxy]-3-phenyl-propionic acid]	–	IC50 (Human recombinant PTP1B): 0.788 µM
O=C(O)C(Cc1ccccc1)Oc1ccc(-c2ccc(-c3c(C(O)c4ccccc4)oc4ccccc34)cc2)cc1[N+](=O)[O-] [Example 67, (2R)-2-{4'-[2-(Hydroxy-phenyl-methyl)-benzofuarn-3-yl)-3-nitro-biphenyl-4-yloxy]-3-phenyl-propionic acid]	0.103	–
O=C(O)[C@@H](Cc1ccccc1)Oc1ccc(-c2ccc(-c3c(Cc4ccccc4)oc4ccccc34)cc2)cc1[N+](=O)[O-] [Example 68, (2R)-2-[4'-(2-Benzyl-benzofuarn-3-yl)-3-nitro-biphenyl-4-yloxy]-3-phenyl-propionic acid]	–	IC50 (Human recombinant PTP1B): 0.231 µM
O=C(O)[C@@H](Cc1ccccc1)Oc1ccc(-c2ccc(-c3nc4cccnc4n3Cc3ccccc3)cc2)cc1 [Example 69, (2R)-2-[4'-(3-Benzyl-3H-imidazol[4,5-b]pyridin-2-yl)-biphenyl-4-yloxy]-3-phenyl-propionic acid sodium salt]	–	change of PTP1B activity (percent of phosphatase control) (Human recombinant PTP1B; compound at 1 uM): -20 (1 uM)
O=C(O)[C@H](Cc1ccccc1)Oc1ccc(-c2ccc(-c3nc4ccccc4n3Cc3ccccc3)cc2)cc1 [Example 70, (2S)-2-[4'-(1-Benzyl-1H-benzimidazol-2-yl)-biphenyl-4-yloxy]-3-phenyl-propionic acid]	–	inhibition at 2.5 µM (Human recombinant PTP1B; compound at 2.5 uM): 41%
CC(=O)c1ccc(-c2ccc(-c3ccc(O[C@@H](Cc4ccccc4)C(=O)O)cc3)cc2)s1 [Example 71, (2S)-2-[4'-(5-acetyl-thiophen-2-yl)-biphenyl-4-yloxy]-3-phenyl-propionic acid sodium salt]	–	inhibition at 2.5 µM (Human recombinant PTP1B; compound at 2.5 uM): 43%
Ammonium molybdate tetrahydrate [reference compound]	8.7	–

Continued, in another order:

IC50 (Human recombinant PTP1B; [2]) [µM]	Molecule	further results
0.038	O=C(O)[C@H](Cc1ccccc1)Oc1c(Br)cc(-c2ccc(-c3c(Cc4ccccc4)oc4ccccc34)cc2)cc1Br [Example 49, (2S)-2-[4'-(2-benzyl-benzofuran-3-yl)-3,5-dibromo-biphenyl-4-yloxy]-3-phenyl-propionic acid]	–
0.056	O=C(O)[C@H](Cc1ccccc1)Oc1ccc(-c2ccc(-c3c(Cc4ccccc4)oc4ccccc34)cc2)cc1Br [Example 50, (2S)-2-[4'-(2-benzyl-benzofuran-3-yl)-3-bromo-biphenyl-4-yloxy]-3-phenyl-propionic acid]	–
0.054	CC(C)C[C@@H](Oc1c(Br)cc(-c2ccc(-c3c(Cc4ccccc4)oc4ccccc34)cc2)cc1Br)C(=O)O [Example 51, (2R)-2-[4'-(2-benzyl-benzofuran-3-yl)-3,5-dibromo-biphenyl-4-yloxy]-4-methyl-pentanoic acid]	–
0.052	CCCCC(Oc1c(Br)cc(-c2ccc(-c3c(Cc4ccccc4)oc4ccccc34)cc2)cc1Br)C(=O)O (centres unmarked) [Example 52, 2-[4'-(2-benzyl-benzofuran-3-yl)-3,5-dibromo-biphenyl-4-yloxy]-hexanoic acid]	–
0.023	CCCCCC[C@H](Oc1c(Br)cc(-c2ccc(-c3c(Cc4ccccc4)oc4ccccc34)cc2)cc1Br)C(=O)O [Example 54, (2S)-2-[4'-(2-benzyl-benzofuran-3-yl)-3,5-dibromo-biphenyl-4-yloxy]-octanoic acid]	–
0.047	COc1ccc(-c2cc(-c3ccc(-c4c(Cc5ccccc5)sc5ccccc45)cc3)cc(Br)c2OCC(=O)O)cc1OC [Example 56, [4-(2-benzyl-benzo[b]-thiophen-3-yl)-5'-bromo-3",4"-dimethoxy[1,1';3',1"-terphenyl]-4'-yloxy]-acetic acid]	–
0.028	COc1cccc(-c2cc(-c3ccc(-c4c(Cc5ccccc5)sc5ccccc45)cc3)cc(Br)c2OCC(=O)O)c1 [Example 57]	–
0.025	COc1cccc(-c2cc(-c3ccc(-c4c(Cc5ccccc5)sc5ccccc45)cc3)cc(-c3cccc(OC)c3)c2OCC(=O)O)c1 [Example 58]	–
0.08	COc1ccc(-c2cc(-c3ccc(-c4c(Cc5ccccc5)sc5ccccc45)cc3)ccc2OCC(=O)O)cc1 [Example 59]	–
0.071	COc1ccc(-c2cc(-c3ccc(-c4c(Cc5ccccc5)sc5ccccc45)cc3)ccc2OCC(=O)O)cc1OC [Example 60]	–
0.1	COc1cc(-c2cc(-c3ccc(-c4c(Cc5ccccc5)sc5ccccc45)cc3)ccc2OCC(=O)O)cc(OC)c1OC [Example 61]	–
0.074	Cc1cc(-c2ccc(-c3c(Cc4ccccc4)oc4ccccc34)cc2)cc(C)c1O[C@H](Cc1ccccc1)C(=O)O [Example 65, (2R)-2-[4'-(2-Benzyl-benzofuarn-3-yl)-3,5-dimethyl-biphenyl-4-yloxy]-3-phenyl-propionic acid]	–
